pEC50: −log10 of the molar value.
Legend:
ERα = molecular target: T1, ERα (Homo sapiens, UniProt P03372); assay: ERα-specific U2OS reporter gene assay; assay type: cell-based
T1 sequence (P03372 1-595): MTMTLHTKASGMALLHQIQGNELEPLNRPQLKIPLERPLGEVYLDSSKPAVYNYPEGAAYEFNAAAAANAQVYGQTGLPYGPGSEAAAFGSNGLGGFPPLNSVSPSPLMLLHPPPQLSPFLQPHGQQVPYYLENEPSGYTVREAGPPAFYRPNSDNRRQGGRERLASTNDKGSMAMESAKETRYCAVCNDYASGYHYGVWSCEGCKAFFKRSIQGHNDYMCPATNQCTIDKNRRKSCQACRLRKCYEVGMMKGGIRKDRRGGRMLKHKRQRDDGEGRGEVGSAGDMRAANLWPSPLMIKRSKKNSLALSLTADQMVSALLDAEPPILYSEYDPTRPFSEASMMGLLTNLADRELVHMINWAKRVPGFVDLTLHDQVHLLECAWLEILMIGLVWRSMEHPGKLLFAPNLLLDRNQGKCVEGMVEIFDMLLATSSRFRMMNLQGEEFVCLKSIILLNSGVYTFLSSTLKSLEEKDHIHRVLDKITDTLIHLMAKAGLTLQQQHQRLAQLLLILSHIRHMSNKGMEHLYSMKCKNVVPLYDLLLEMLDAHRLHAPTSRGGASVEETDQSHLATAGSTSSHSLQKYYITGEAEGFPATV

ERβ = ERβ (Homo sapiens, UniProt Q92731); assay: ERβ-specific U2OS reporter gene assay; assay type: cell-based
FLAG-ERβ = assay type: cell-based, human; conditions: in the presence of 1000 ng tetracycline/ml, 24 h

ERβ, sequence (Q92731 whole entry): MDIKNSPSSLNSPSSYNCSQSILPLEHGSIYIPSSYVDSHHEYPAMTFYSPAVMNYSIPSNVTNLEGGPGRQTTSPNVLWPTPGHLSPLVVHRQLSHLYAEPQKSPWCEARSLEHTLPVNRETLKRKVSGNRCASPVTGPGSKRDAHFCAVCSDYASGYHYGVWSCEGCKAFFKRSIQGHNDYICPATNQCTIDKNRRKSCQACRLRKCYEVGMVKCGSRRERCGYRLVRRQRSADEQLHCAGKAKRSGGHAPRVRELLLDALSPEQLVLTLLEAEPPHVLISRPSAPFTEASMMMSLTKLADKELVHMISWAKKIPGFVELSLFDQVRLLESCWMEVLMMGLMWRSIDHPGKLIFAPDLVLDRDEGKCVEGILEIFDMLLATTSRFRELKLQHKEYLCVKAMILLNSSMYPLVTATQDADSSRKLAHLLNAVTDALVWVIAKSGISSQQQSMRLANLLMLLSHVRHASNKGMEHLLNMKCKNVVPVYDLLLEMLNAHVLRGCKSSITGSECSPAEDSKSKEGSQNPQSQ

Compound | pEC50 (ERα) | Transcription of the reporter gene in the ERβ-U2OS-Luc cell line (ERβ) | FLAG-ERβ protein expression (FLAG-ERβ)
CCCc1c(-c2ccc(O)cc2)nn(-c2ccc(O)cc2)c1-c1ccc(O)cc1 [PPT, 4,4′,4″-(4-propyl-[1H]pyrazole-1,3,5-triyl) Tris-phenol] | 9.85 | unable to induce any transcription | –
CN(C)[C@@H]1C(O)=C(C(N)=O)C(=O)[C@@]2(O)C(O)=C3C(=O)c4c(O)cccc4[C@@](C)(O)[C@H]3C[C@@H]12 [tetracycline, Tetracycline] | – | – | No detectable FLAG-ERβ protein

Reference: paper PMC2527638 (Toxicological Sciences, 2008)
